Data set [1] concerns PC-3. Kind of data set: Cytotoxicity against human PC-3 cells assessed as reduction in cell viability measured after 48 hrs by MTT assay. Format: functional, cell-based. The settings on record: PC-3, 48 h.
The subject of data set [2] is MCF7. Kind of data set: Cytotoxicity against human MCF7 cells assessed as reduction in cell viability measured after 48 hrs by MTT assay. The format is functional, cell-based. The settings on record: MCF7, 48 h.
The subject of data set [3] is MCF7. Kind of data set: Cytotoxicity against human MCF7 cells assessed as reduction in cell viability at 100 uM measured after 48 hrs by MTT assay. Format: functional, cell-based.
The test system of data set [4] is PC-3. Description: Cell cycle arrest in human PC-3 cells assessed as accumulation of cells at G1 phase at cytotoxic IC50 measured after 48 hrs by propidium iodide staining based flow cytometry relative to control. The format is functional.
The target of a further data set is Carbonic anhydrase 9 (Homo sapiens, UniProt Q16790). Description: biochemical. Format: cell-based, Sf9.
For data set [5], the system named is PC-3. Description: Induction of apoptosis in human PC-3 cells assessed as necrotic cells at cytotoxic IC50 measured after 48 hrs by Annexin-V-FITC/propidium iodide staining based flow cytometry (reference value: 1.61%). Format: functional.
For data set [6], the system named is PC-3. Description: Induction of apoptosis in human PC-3 cells assessed as accumulation of early apoptotic cells at cytotoxic IC50 measured after 48 hrs by Annexin-V-FITC/propidium iodide staining based flow cytometry relative to control. The format is functional.
Data set [7] deals with PC-3. Description: Cell cycle arrest in human PC-3 cells assessed as accumulation of cells at G2/M phase at cytotoxic IC50 measured after 48 hrs by propidium iodide staining based flow cytometry (reference value: 12.75%). Format: functional.
Data set [8] deals with PC-3. Description: Cytotoxicity against human PC-3 cells assessed as reduction in cell viability at 100 uM measured after 48 hrs by MTT assay. Format: functional, cell-based.
Another data set has as its system WI-38. Description: Cytotoxicity against human WI-38 cells assessed as cell death at 100 uM measured after 48 hrs by MTT assay relative to control. The format is toxicity, cell-based. The settings on record: wi-38, 48 h.
Data set [9] concerns PC-3. Kind of data set: Induction of apoptosis in human PC-3 cells assessed as accumulation of late apoptotic cells at cytotoxic IC50 measured after 48 hrs by Annexin-V-FITC/propidium iodide staining based flow cytometry relative to control. Format: functional.
In data set [10] the test system is PC-3. Description: Cell cycle arrest in human PC-3 cells assessed as accumulation of cells at S phase at cytotoxic IC50 measured after 48 hrs by propidium iodide staining based flow cytometry (reference value: 19.81%). Format: functional.
The nature of data set [11]: Cytotoxicity against human WI-38 cells assessed as reduction in cell viability measured after 48 hrs by MTT assay. The format is toxicity, cell-based.

pIC50: −log10 of the molar value. Calls of active or inactive are those of the source. The rule behind the calls is not given here.

Description for Carbonic anhydrase 9: Inhibition of human C-terminal His-tagged CA-9 (59 to 414 residues) expressed in baculovirus infected Sf9 insect cells

Consider `Cc1cc(=O)oc2cc(OCc3cn(-c4ccc(S(=O)(=O)Nc5ncccn5)cc4)nn3)ccc12`, for which the negative logarithm of the IC50 (pIC50) was 5.08 in the data set on PC-3 [1] and 4.38 in the data set with MCF7 [2].
In the case of `Cc1cc(=O)oc2c(C)c(OCc3cn(-c4ccc(S(=O)(=O)Nc5ccccn5)cc4)nn3)ccc12`, in the data set with MCF7 [3], the outcome was Active. The results for the pIC50 in the data set on PC-3 [1] and in the data set on MCF7 [2] were 5.05 and 4.85, respectively.
Take `O=c1cc(-c2ccccc2)c2c(OCc3cn(-c4ccc(S(=O)(=O)Nc5ccccn5)cc4)nn3)cc(OCc3cn(-c4ccc(S(=O)(=O)Nc5ccccn5)cc4)nn3)cc2o1`: the Activity in the data set on PC-3 [4] was 31.9%; with PC-3 [5] it was 4.68%; with PC-3 [7], 9.36%; with WI-38 it was 23.6%; with PC-3 [10] it was 15.29%. The pIC50 was 6.95 against Carbonic anhydrase 9, 5.68 in the data set on PC-3 [1] and 4.75 with MCF7 [2]. Besides, the “fold change (FC)” value with PC-3 [6] was greater than 18; in the data set on PC-3 [9] it was 60. The result with PC-3 [8] was Active. In data set [11], the IC50 at 48 h was 46.6 µM.
In the case of `Cc1cc(=O)oc2cc(OCc3cn(-c4ccc(S(=O)(=O)N=C(N)N)cc4)nn3)ccc12`, the negative-log IC50 (pIC50) with PC-3 [1] was 4.62; in the data set with MCF7 [2] it was 4.12.
For the molecule `Cc1cc(C)nc(NS(=O)(=O)c2ccc(-n3cc(COc4cc(OCc5cn(-c6ccc(S(=O)(=O)Nc7nc(C)cc(C)n7)cc6)nn5)c5c(-c6ccccc6)cc(=O)oc5c4)nn3)cc2)n1`, the pIC50 is 6.87 on Carbonic anhydrase 9, 5.12 in the data set with PC-3 [1] and less than 4.00 in the data set with MCF7 [2]. Besides, the outcome in the data set with PC-3 [8] was Active. In addition, in the data set on WI-38, the Activity worked out at 23.6%. The half-maximal inhibitory concentration (IC50) at 48 h in [11] was determined as 46.6 µM.
As for `Cc1cc(=O)oc2c(C)c(OCc3cn(CC(=O)Nc4ccc(S(=O)(=O)Nc5ccccn5)cc4)nn3)ccc12`, the pIC50 in the data set on PC-3 [1] was 4.40; in the data set with MCF7 [2], 4.41.
For the molecule `Cc1cc(C)nc(NS(=O)(=O)c2ccc(-n3cc(COc4ccc5c(C)cc(=O)oc5c4C)nn3)cc2)n1`, the results for the pIC50 with PC-3 [1] and with MCF7 [2] were 4.67 and 4.39, respectively.
Taken in the same sequence, the figures for `O=c1cc(-c2ccccc2)c2c(OCc3cn(-c4ccc(S(=O)(=O)Nc5ncccn5)cc4)nn3)cc(OCc3cn(-c4ccc(S(=O)(=O)Nc5ncccn5)cc4)nn3)cc2o1` were 4.94 and 4.18.
The matching figures for `Cc1cc(=O)oc2cc(OCc3cn(-c4ccc(S(=O)(=O)Nc5ccccn5)cc4)nn3)ccc12`: 4.80 and 4.50.
For the molecule `Cc1cc(=O)oc2cc(OCc3cn(CC(=O)Nc4ccc(S(=O)(=O)Nc5ccccn5)cc4)nn3)ccc12`, the outcome with MCF7 [3] was Active. The pIC50 with PC-3 [1] is 4.23; in the data set with MCF7 [2] it was 4.77.
Take `N=C(N)NS(=O)(=O)c1ccc(-n2cc(COc3cc(OCc4cn(-c5ccc(S(=O)(=O)NC(=N)N)cc5)nn4)c4c(-c5ccccc5)cc(=O)oc4c3)nn2)cc1`: the result in the data set on MCF7 [3] was Active. In addition, the negative-log IC50 (pIC50) in the data set on PC-3 [1] is 4.83; with MCF7 [2] it was 4.72.
In the case of `Cc1cc(C)nc(NS(=O)(=O)c2ccc(-n3cc(COc4ccc5c(C)cc(=O)oc5c4)nn3)cc2)n1`, the pIC50 in the data set on PC-3 [1] was 5.00; in the data set with MCF7 [2], 4.01.
Taken in the same sequence, the figures for `Cc1cc(=O)oc2c(C)c(OCc3cn(-c4ccc(S(=O)(=O)Nc5ncccn5)cc4)nn3)ccc12` were 4.90 and 4.78.
Regarding `O=C(Cn1cc(COc2cc(OCc3cn(CC(=O)Nc4ccc(S(=O)(=O)Nc5ccccn5)cc4)nn3)c3c(-c4ccccc4)cc(=O)oc3c2)nn1)Nc1ccc(S(=O)(=O)Nc2ccccn2)cc1`, the figures for the negative-log IC50 (pIC50) against Carbonic anhydrase 9, in the data set with PC-3 [1] and in the data set with MCF7 [2] were 6.67, 5.26 and 4.24, respectively. Moreover, in the data set with PC-3 [8], the result was Active. Further, the Activity in the data set with WI-38 is reported as 23.6%. In data set [11], the 50% inhibitory concentration (IC50) at 48 h was 46.6 µM.
As for `COc1cccc2c1C(=O)c1c(O)c3c(c(O)c1C2=O)C[C@@](O)(C(=O)CO)C[C@@H]3O[C@H]1C[C@H](N)[C@H](O)[C@H](C)O1` [DOXORUBICIN], the figures for the negative logarithm of the IC50 (pIC50) in the data set on PC-3 [1] and in the data set with MCF7 [2] were 5.64 and 5.47, respectively.
As to `Cc1cc(=O)oc2c(C)c(OCc3cn(-c4ccc(S(=O)(=O)N=C(N)N)cc4)nn3)ccc12`, the results for the negative-log IC50 (pIC50) in the data set with PC-3 [1] and with MCF7 [2] were 4.53 and 4.25, respectively.

The record behind these values is ChEMBL document CHEMBL5576115, “Design and synthesis of chromene-1,2,3-triazole benzene sulfonamide hybrids as potent carbonic anhydrase-IX inhibitors against prostate cancer” (RSC Med Chem, 2024).
